Patent publication US20030157101A1, “Immunogenic ALK peptides” (priority 2001, published 2003)
Values joined by “and” are separate entries in the source; they are usually repeats but may differ in a detail not shown here. Equal values may be shown once. “Also recorded” adds a separate entry of the source.

What was measured:
[1] = system: HLA-A*0201 monochain transgenic (HHD) mice; experiment: In vivo immunogenicity of ALK-derived peptides in HHD mice (51Cr-release on peptide-pulsed RMA-S/HHD cells); conditions: for R/T HHD mice (responder versus tested mice): 100 μg peptide s.c. in IFA, responder = specific lysis at least 15% above lysis of unloaded RMA-S/HDD; for % lysis of peptide-loaded RMA-S/HHD cells: E:T ratio 60:1, maximal lysis observed for each responder mouse
[2] = system: healthy donor PBLs; experiment: Stimulation of ALK-specific CTLs from healthy donor PBLs; type: cell-based, human; conditions: three donors tested per peptide; lysis of peptide loaded T2 cells and NPM/ALK-positive lymphoma lines
Method: Blood was collected from HLA-A*0201 normal volunteer donors. PBMC were isolated from whole blood by Ficoll/Hypaque (Pharmacia, Uppsala, Sweden) density gradient centrifugation. Dendritic cells (DCs) were generated according to the protocol of Sallusto and Lanzavecchia (Sallusto F. et al., (1994) J Exp Med. 179: 1109-1118). Adherent monocyte-enriched peripheral blood mononuclear cells (PBMCs) were cultured in RPMI 1640 medium supplemented with 10% FCS, 20 ng/ml recombinant human interleukin (IL)-4 (R&D Systems, Minneapolis, Minn.) and 800 U/ml recombinant human granulocyte-macrophage colony-stimulating factor (GM-CSF) (Sandoz, Basel, Switzerland). On day 5 of culture, 10 ng/ml recombinant human tumor necrosis factor (TNF)-α (Knoll, Ludwigshafen, Germany) was added to the medium. After 40 hrs, the surface phenotype of monocyte-derived DCs was determined by single-color flow cytometry using the following mAbs: fluorescein-conjugated anti-CD1a ([…], Torino, Italy), anti-CD86 (CALTAG, Burlingame, Calif.), anti-CD83 (CALTAG, Burlingame, Calif.), anti-CD14 (Becton Dickinson) and rhodamine-conjugated anti-CD80 (Becton Dickinson). DCs were used to prime autologous PBL as follows. DCs were pulsed with 10 μM peptide for 2 hrs at 37° C., irradiated at 30 Gy and added to autologous PBLs at a ratio variable from 3:1 to 6:1 (PBL:DC). PBLs (36×10^6 total) were cultured at 1,5×10^6 cells/2ml of Culture Medium (CM: 50% RPMI 1640/50% X-VIVO (BioWhittaker, […], Mass.)) supplemented with 10% of heat-inactivated autologous plasma and 10 ng/ml IL-7 (R&D Systems, Minneapolis, Minn.) in the presence of autologous peptide-loaded DCs. At day 10-12 of culture, lymphocytes were restimulated with irradiated (30 Gy) autologous peptide-loaded monocytes in CM supplemented with 10% of heat-inactivated autologous plasma. After 24-48 hrs 10 IU/ml IL-2 (Chiron Co., Emeryville, Calif.) and 10 ng/ml IL-7 was added to the CM. Lymphocytes were then restimulated weekly in the same way. Starting from the forth round of stimulation, the specificity of the resulting T-cell lines was evaluated weekly in a cytolytic assay. When any specific activity was detected, CD8+ T-cells were isolated from the bulk culture by CD4+ cells negative depletion using mAb-coated beads (Dynal Dynabeads, Oxoid, Oslo, Norway) and the CTL lines were maintained in culture in RPMI 1640 containing 10% human AB serum supplemented with 50 U/ml IL-2 in the presence of irradiated (70 Gy) PBMCs as feeder. To prime ALK-specific lymphocytes, peptide-pulsed autologous dendritic cells (DCs) derived from peripheral blood mononuclear cells (PBMCs) were used after their in vitro maturation was confirmed by flow cytometric analysis of DC-specific cell surface markers. After a 3-4 week cycle of restimulation T lymphocyte specificity for ALK peptides was evaluated by determining antigen-restricted lysis of peptide loaded T2 cells (FIG. 1A) and NPM/ALK-positive lymphoma cell lines (FIG. 1B).

[3] = biological target: HLA-A*0201/peptide complexes (Homo sapiens, UniProt P04439, D140Y/D185E/D98H/E176V/E277Q/G131W/G231S/I119V/I121R/I166T/I218V/L300P/L318F/N151K/N90K/P208A/P217A/Q86G/Q94H/R138H/R169H/T345S); experiment: HLA-A*0201/peptide complex stability on T2 cells (DC50); type: binding; conditions: 100 μM peptide overnight, Brefeldin A, 37° C.
Method: To assess the HLA-A*0201/peptide complex stability, T2 cells (10^6/ml) were incubated overnight with 100 μM of each peptide in serum free RPMI 1640 supplemented with 100 ng/ml of human β2m at 37° C. Cells were then washed four times to remove free peptides, incubated for 1 hr with 10 μg/ml of Brefeldin A (Sigma-Aldrich, France) in order to block cell surface expression of newly synthesized HLA-A*0201 molecules, washed and incubated at 37° C. for 0, 2, 4, 6, or 8 hours. Subsequently, cells were stained with anti-HLA-A2.1 mAb BB7.2. For each time point, peptide induced HLA-A*0201 expression was calculated as: mean fluorescence value of peptide incubated T2 cells/mean fluorescence value T2 cells in the absence of the peptide.

[4] = system: anti-ALK specific CTLs; experiment: IFN-γ release assay with anti-ALK CTL lines (ELISA); type: cell-based, human; conditions: for Peptide concentration giving maximal IFN-γ production: titration on T2 cells, peptide-specific CTL lines; for IFN-γ released by p280-89 CTLs: p280-89 loaded autologous LCL
[5] = system: ALCL lymphoma cell lines SU-DHL1 and SUP-M2; experiment: 51Cr release lysis of NPM/ALK-expressing ALCL cell lines by peptide-specific CTLs; type: cell-based, human; conditions: SU-DHL1 and SUP-M2, HLA-A2.1+
Method: (§1) Cytolytic activity was measured in a conventional 4-hrs ^51Cr release assay. A 10-fold excess of unlabeled K562 cells was added to offset NK activity. Target cells and E:T ratio are indicated in each figure. Specific lysis was determined according to the following formula: % specific lysis=cpm (sample−spontaneous)/cpm (total−spontaneous)×100. HLA-A*0201 blocking of T-cell activity (lysis and/or citokine release) was performed by preincubating target cells with the anti-HLA-A2 mAb CR11.351.
(§2) Thus, it can be concluded that ALK peptide induced CTLs efficiently lyse lymphoma targets, in a HLA-A2 restricted fashion, by relevant antigen-specific recognition.

[6] = system: FM3 (melanoma), HCT-116 (colon carcinoma), MCF-7 (breast carcinoma); experiment: 51Cr release lysis of HLA-A2.1+/ALK- tumor lines by peptide-specific CTLs; type: cell-based, human; conditions: FM3, HCT-116, MCF-7
Method: as §1, §2

[7] = system: neuroblastoma cell line IMR-32; experiment: 51Cr release lysis of HLA-A2.1+/ALK+ neuroblastoma cells by peptide-specific CTLs; type: cell-based, human; conditions: IMR-32, treated with INF-γ before use
Method: as §1, with “(sample-spontaneous)/cpm (total-spontaneous)×100.” for “(sample−spontaneous)/cpm (total−spontaneous)×100.”, “CR11.351. […] Because p280-89 and p376-85 peptides lie within the kinase domain, which is present in both native and translocated ALK, we used neuroblastoma cell lines as targets in cytotoxic experiments to further verify the natural processing of these two epitopes.” for “CR11.351.”

[8] = system: SK-N-SH (HLA-A2.1-/ALK+) and NB-5 (HLA-A2.1+/ALK-) cell lines; experiment: 51Cr release lysis of control neuroblastoma lines by peptide-specific CTLs; type: cell-based, human
Method: as §1, with “(sample-spontaneous)/cpm (total-spontaneous)×100.” for “(sample−spontaneous)/cpm (total−spontaneous)×100.”, “CR11.351. […] Because p280-89 and p376-85 peptides lie within the kinase domain, which is present in both native and translocated ALK, we used neuroblastoma cell lines as targets in cytotoxic experiments to further verify the natural processing of these two epitopes.” for “CR11.351.”

[9] = system: ALCL lymphoma cell lines SU-DHL1 and SUP-M2; conditions: cited from earlier work
[10] = biological target: T1, HLA-A*0201 molecules on TAP-deficient T2 cells (human); experiment: T2 cell HLA-A*0201 stabilisation, 100 uM peptide, flow cytometry with mAb BB7.2; mean of 4 experiments ± SEM
T1 construct: Peptide-receptive class I molecule on T2 cells; also called HLA-A2.1; HLA-A2
Method: T2 cells were incubated with 100 μM of peptide in serum-free RPMI 1640 supplemented with 5 μg/ml of human β₂m (Fluka, Buchs, Germany) for 18 hrs at 37° C.

[11] = biological target: T1, HLA-A*0201 molecules on TAP-deficient …; experiment: T2 cells loaded with 100 uM peptide, Brefeldin A, flow cytometry with BB7.2 over 0-8 h
Excerpt: Subsequently, cells were stained with anti-HLA-A2.1 mAb BB7.2.

Row | Molecule | R/T HHD mice (responder versus tested mice) [1] | % lysis of peptide-loaded RMA-S/HHD cells [1] | Donor response to peptide stimulation (specific CD8 reactivity) [2] | DC50, half-life of disassociation of HLA-A*02.01/peptide complexes [3] [h] | FI (Fluorescence Index) [10] | other results
1 | AMLDLLHVA (listed as Homo sapiens) [p282-90] | 3/6 | 80% and 56% and 50% | No specific CD8 reactivity was detected | 4 to 6 | – | –
2 | GVLLWEIFSL (listed as Homo sapiens) [p376-85] | 3/6 | 24% and 15% | At least one out of the three donors tested were found to be responders | – | – | IFN-γ released by p376-85 CTLs ([4]; donor one, p376-85 pulsed T2 cells, 5 μM peptide): 674 IU/ml; Peptide concentration giving maximal IFN-γ production [4]: 100 nM; Lysis of NPM/ALK-expressing ALCL cell lines by peptide-specific CTLs [5]: efficiently recognize and lyse; also recorded: killed these tumor lines; Lysis of HLA-A2.1+/ALK- tumor lines by peptide-specific CTLs [6]: no activity was detected; also recorded: No lysis above background level; Lysis of HLA-A2.1+/ALK+ neuroblastoma cells by peptide-specific CTLs [7]: efficiently lysed; Lysis of HLA-A2.1+/ALK+ neuroblastoma cells by peptide-specific CTLs ([7]; listed as p375-86): recognize and kill; Lysis of HLA-A2.1-/ALK+ or HLA-A2.1+/ALK- neuroblastoma lines by peptide-specific CTLs [8]: No lysis was detected
3 | LAMLDLLHV (listed as Homo sapiens) [p281-89] | 2/6 | 42% and 34% | No specific CD8 reactivity was detected | – | – | –
4 | SLTANMKEV (listed as Homo sapiens) [p621-29] | 2/6 | 63% and 53% | No specific CD8 reactivity was detected | 4 to 6 | – | –
5 | VLLWEIFSL (listed as Homo sapiens) [p377-85] | 3/6 | – | At least one out of the three donors tested were found to be responders | 4 to 6 | – | –
6 | ALPIEYGPLV (listed as Homo sapiens) [p456-65] | 2/6 | – | At least one out of the three donors tested were found to be responders | 2 to 4 | – | –
7 | SLAMLDLLHV (listed as Homo sapiens) [p280-89] | 3/6 | – | At least one out of the three donors tested were found to be responders | – | – | IFN-γ released by p280-89 CTLs ([4]; donor three, 5 μM peptide): 750 IU/ml; IFN-γ released by p280-89 CTLs ([4]; donor two, 5 μM peptide): 445 IU/ml; Peptide concentration giving maximal IFN-γ production [4]: 10 nM; Lysis of NPM/ALK-expressing ALCL cell lines by peptide-specific CTLs [5]: efficiently recognize and lyse; also recorded: killed these tumor lines; Lysis of HLA-A2.1+/ALK- tumor lines by peptide-specific CTLs [6]: no activity was detected; also recorded: No lysis above background level; Lysis of HLA-A2.1+/ALK+ neuroblastoma cells by peptide-specific CTLs [7]: recognize and kill; also recorded: efficiently lysed; CTL cytotoxicity against NPM/ALK-positive lymphoma cell lines [9]: stimulate CTL cytotoxicity; Lysis of HLA-A2.1-/ALK+ or HLA-A2.1+/ALK- neuroblastoma lines by peptide-specific CTLs [8]: No lysis was detected
8 | SLAMLDLLHV (Lies within the ALK kinase domain) [ALK peptide p280-89 (SLAMLDLLHV)] | – | – | – | – | 5.6 ratio (sample / irrelevant-peptide control) | DC50 (half-life of dissociation of HLA-A*0201/peptide complexes) [11]: 4 hs (hours)
9 | LAMLDLLHV [ALK peptide p281-89 (LAMLDLLHV)] | – | – | – | – | 3.5 ratio (sample / irrelevant-peptide control) | DC50 (half-life of dissociation of HLA-A*0201/peptide complexes) [11]: 2 hs (hours)
10 | ALPIEYGPLV (Downstream of the kinase domain) [ALK peptide p456-65 (ALPIEYGPLV)] | – | – | – | – | 4.2 ratio (sample / irrelevant-peptide control) | –
11 | GVLLWEIFSL (also called p375-86) [ALK peptide p376-85 (GVLLWEIFSL)] | – | – | – | – | 2.8 ratio (sample / irrelevant-peptide control) | DC50 (half-life of dissociation of HLA-A*0201/peptide complexes) [11]: 6 hs (hours)
12 | AMLDLLHVA [ALK peptide p282-90 (AMLDLLHVA)] | – | – | – | – | 5.4 ratio (sample / irrelevant-peptide control) | –
13 | VLLWEIFSL [ALK peptide p377-85 (VLLWEIFSL)] | – | – | – | – | 3 ratio (sample / irrelevant-peptide control) | –
